Source: patent US20180265877A1, “METHODS AND COMPOSITIONS FOR AGROBACTERIUM COMPRISING NEGATIVE SELECTION MARKERS” (PIONEER HI-BRED INTERNATIONAL, INC., priority 2015, published 2018)

Assays:
[1] = test system: four Agrobacterium strains (AGL0, LBA4404, EHA101 and EHA105); assay: Agrobacterium growth assay, the four strains; type: cell-based; conditions: 5-fluorocytosine up to the highest concentration tested (1000 μg/ml)
Protocol: (§1) For all Agrobacterium growth-assay experiments, standard Agrobacterium minimal medium was used, with no additives as a control treatment, or with the addition of either 5-fluorocytosine, 5-fluorouracil or thymidine. To begin these tests, experiments were conducted to test for growth of wild-type and mutant AGL0 Agrobacterium strains on either 5-fluorocytosine (5-fluorocytosine, the non-toxic substrate of the CODA protein) or 5-fluorouracil (5-fluorouracil, the toxic product).

[2] = test system: immature embryos of inbred HC69; assay: Callus initiation from corn immature embryos, inbred HC69; type: cell-based; conditions: for HC69: embryos producing a callus response / embryos plated / Embryo with culture - Response (callus initiation frequency): 18 d cultured on 13152C; for Embryo with culture - Response (callus initiation frequency): HC69
Protocol: (§2) Agrobacterium was tolerant of the substrate (5-fluorocytosine) and was inhibited by low levels of the converted product (5-fluorouracil). An experiment was performed to determine whether corn immature embryos and growing callus were sensitive to the substrate, 5-fluorocytosine. Immature embryos of two inbred lines ([…] or PHH5G, representative non-stiff-stalk and stiff-stalk Pioneer Hi-Bred inbreds) were plated onto appropriate callus culture media (see Table 6) supplemented with 0, 100, […]

[3] = test system: Agrobacterium strain AGL0; assay: Agrobacterium growth assay on solid minimal medium, wild-type AGL0; type: cell-based; set-up: key to Growth score: a score of zero (0) indicating no visible colonies; 1+ indicating a few isolated colonies; ++: progressing up to 5+; +++: progressing up to 5+; ++++: progressing up to 5+; +++++: 5+ indicating a confluent lawn
Protocol: as §1
(§3) In Table 4, results of a more detailed kill-curve for strain AGL0 on 5-fluorouracil are shown. […] Finally, a third experiment was performed using either wild-type AGL0 or an auxotrophic mutant of AGL0 in which the gene encoding thymidylate synthase was inactivated, rendering the bacteria incapable of growth in the absence of thymidine (this strain was referred to as AGL0 THY−). The two strains were plated at high densities (10^6 or 10^8 CFU/plate) onto medium containing 0, 1 or 3 μg/ml 5-fluorouracil, with each of these three treatments containing either 0 or 50 mg/l thymidine.
(§4) The newly developed AGL0 mutant strain (THY−/codA+, see Example 1) was plated on varying concentrations of 5-fluorocytosine to assess growth. This strain, along with wild-type AGL0 were cultured overnight in liquid medium, diluted to 10^7 CFU and then 100 μl of suspension was plated onto minimal Agro medium+/− thymidine, with either 0, 100, 200 or 300 μg/ml 5-fluorocytosine, for a total of 8 treatments. After 72 hours at 28° C., the plates were scored for Agrobacterium growth.

[4] = test system: Agrobacterium strain EHA105; assay: Agrobacterium growth assay on solid minimal medium, EHA105; type: cell-based; set-up: key: a score of zero (0) indicating no visible colonies; 1+ indicating a few isolated colonies; ++: progressing up to 5+; +++: progressing up to 5+; ++++: progressing up to 5+; +++++: 5+ indicating a confluent lawn; conditions: EHA105 plated at 1 × 10^4, after 3 days
Protocol: as §1

[5] = test system: Agrobacterium strain LBA4404; assay: Agrobacterium growth assay on solid minimal medium, LBA4404; type: cell-based; set-up: key: a score of zero (0) indicating no visible colonies; 1+ indicating a few isolated colonies; ++: progressing up to 5+; +++: progressing up to 5+; ++++: progressing up to 5+; +++++: 5+ indicating a confluent lawn; conditions: LBA4404 plated at 1 × 10^4, after 3 days
Protocol: as §1

[6] = test system: AGL0 mutant strain (THY−/codA+); assay: Growth of AGL0 THY−/codA+ on 5-fluorocytosine; type: cell-based, Agrobacterium
Protocol: as §4

[7] = test system: Agrobacterium strain EHA101; assay: Agrobacterium growth assay on solid minimal medium, EHA101; type: cell-based; set-up: key: a score of zero (0) indicating no visible colonies; 1+ indicating a few isolated colonies; ++: progressing up to 5+; +++: progressing up to 5+; ++++: progressing up to 5+; +++++: 5+ indicating a confluent lawn; conditions: EHA101 plated at 1 x 10^4, after 3 days
Protocol: as §1

[8] = test system: immature embryos of inbred PHH5G; assay: Callus initiation from corn immature embryos, inbred PHH5G; type: cell-based; conditions: for PHH5G: embryos producing a callus response / embryos plated / Embryo with culture - Response (callus initiation frequency): 18 d cultured on 13152C; for Embryo with culture - Response (callus initiation frequency): PHH5G
Protocol: as §2

AGL0 THY− = assay: Agrobacterium growth assay on solid medium, thymidine auxotroph AGL0 THY−; type: cell-based; conditions: thy 50 mg/l, 5-fluorouracil 0 μg/ml, after 24 hours
Protocol: as §3

## Nc1nc(=O)[nH]cc1F [5-fluorocytosine]
[1]
  Growth inhibition: no apparent growth inhibition
[2]; 100 μg/ml 5-fluorocytosine
  HC69: embryos producing a callus response / embryos plated: 32/50
  Embryo with culture - Response (callus initiation frequency): 64%
[2]; 250 μg/ml 5-fluorocytosine
  HC69: embryos producing a callus response / embryos plated: 34/50
  Embryo with culture - Response (callus initiation frequency): 68%
[2]; 400 μg/ml 5-fluorocytosine
  HC69: embryos producing a callus response / embryos plated: 34/50
  Embryo with culture - Response (callus initiation frequency): 68%
[2]; inbred printed as HC96, 100, 250 or 400 μg/ml 5-fluorocytosine, 3 weeks
  Callus initiation frequency or callus growth rates vs no 5-fluorocytosine: no discernible differences
[3]; AGL0 plated at 1 × 10^4, 500 μg/ml 5-fluorocytosine, after 3 days
  Growth score: +++
[3]; AGL0 plated at 1 × 10^4, 1000 μg/ml 5-fluorocytosine, after 3 days
  Growth score: +++
[3]; AGL0 plated at 4 × 10^7, 500 μg/ml 5-fluorocytosine, after 3 days
  Growth score: +++++
[3]; AGL0 plated at 4 × 10^7, 1000 μg/ml 5-fluorocytosine, after 3 days
  Growth score: +++++
[3]; wild-type AGL0, 100, 200 or 300 μg/ml 5-fluorocytosine, +/− thymidine, 72 hours at 28° C.
  Growth: grew under all 5-fluorocytosine concentrations
[4]; 500 μg/ml 5-fluorocytosine
  Growth score: +++
[4]; 1000 μg/ml 5-fluorocytosine
  Growth score: +++
[5]; 500 μg/ml 5-fluorocytosine
  Growth score: +++
[5]; 1000 μg/ml 5-fluorocytosine
  Growth score: +++
[6]; 100, 200 or 300 μg/ml 5-fluorocytosine, thymidine present, 72 hours at 28° C.
  Growth: did not grow
[7]; 500 μg/ml 5-fluorocytosine
  Growth score: +++
[7]; 1000 μg/ml 5-fluorocytosine
  Growth score: +++
[8]; 100 μg/ml 5-fluorocytosine
  PHH5G: embryos producing a callus response / embryos plated: 12/50
  Embryo with culture - Response (callus initiation frequency): 24%
[8]; 250 μg/ml 5-fluorocytosine
  PHH5G: embryos producing a callus response / embryos plated: 18/50
  Embryo with culture - Response (callus initiation frequency): 36%
[8]; 400 μg/ml 5-fluorocytosine
  PHH5G: embryos producing a callus response / embryos plated: 8/25
  Embryo with culture - Response (callus initiation frequency): 32%
[8]; inbred PHH5G, 100, 250 or 400 μg/ml 5-fluorocytosine, 3 weeks
  Callus initiation frequency or callus growth rates vs no 5-fluorocytosine: no discernible differences

## Cc1cn([C@H]2C[C@H](O)[C@@H](CO)O2)c(=O)[nH]c1=O [thy, thymidine]
AGL0 THY−; AGL0 THY- 1 x 10^6
  Growth score: +++
AGL0 THY−; AGL0 THY- 1 x 10^8
  Growth score: +++
[3]; AGL0 1 x 10^6, thy 50 mg/l, 5-fluorouracil 0 μg/ml, after 24 hours
  Growth score: +++
[3]; AGL0 1 x 10^8, thy 50 mg/l, 5-fluorouracil 0 μg/ml, after 24 hours
  Growth score: +++
[6]; 50 mg/l thymidine, no 5-fluorocytosine, 72 hours
  Growth: confluent lawn of colonies
